Laboratory results: patent US20250304566A1, “CRYSTALLINE FORMS OF (5S)-3-[3-(3-CHLORO-2-FLUOROPHENOXY)-6-METHYLPYRIDAZIN-4-YL]-5-(2-CHLORO-4-METHYLBENZYL)-5,6-DIHYDRO-4H-1,2,4-OXADIAZINE” (priority 2022, published 2025)

Key:
Type in all cases: physicochemical
[1] = Transition temperature between polymorphic forms A and B (temperature-depending XRPD); conditions: for phase change temperature: temperature-depending XRPD
Description: To obtain crystals of polymorphic form A, a temperature-depending X-ray powder diffraction (XRPD) experiment was performed, in which recrystallization was allowed at different temperatures.

[2] = Slurry experiment (polymorph obtained, XRPD); conditions: for Mod. obtained: 8 days
Description: Compound of formula (I) was suspended in the respective solvent and stirred at 0° C., 40° C. (Mya4 stirrer station at 250 u/min) and 80° C. After three to eight days, an additional amount of solvent was added to the suspensions. In two experiments additional substance were added after four days. After eight days the suspensions were dried at ambient conditions.
The obtained crystals were isolated and analyzed by X-ray powder diffraction (XRPD) spectrometry, DSC and TGA.

[3] = Measurement of Log P values by HPLC on reversed phase columns (EEC directive 79/831 Annex V.A8); conditions: reversed phase HPLC column, acidic range, 0.1% formic acid in water and acetonitrile
Description: Measurement of Log P values Measurement of Log P values as provided herein was performed according to EEC directive 79/831 Annex V.A8 by HPLC (High Performance Liquid Chromatography) on reversed phase columns with method determined by measurement of LC-UV, in an acidic range, with 0.1% formic acid in water and acetonitrile as eluent (linear gradient from 10% acetonitrile to 95% acetonitrile). Calibration was done with straight-chain alkan2-ones (with 3 to 16 carbon atoms) with known Log P values (measurement of Log P values using retention times with linear interpolation between successive alkanones). Lambda-max-values were determined using UV-spectra from 200 nm to 400 nm and the peak values of the chromatographic signals

With `Cc1ccc(C[C@H]2CON=C(c3cc(C)nnc3Oc3cccc(Cl)c3F)N2)c(Cl)c1` [polymorphic form A, (5S)-3-[3-(3-chloro-2-fluorophenoxy)-6-methylpyridazin-4-yl]-5-(2-chloro-4-methylbenzyl)-5,6-dihydro-4H-1,2,4-oxadiazine] the thermodynamic stability ([1]; at lower temperatures) was “very fast transition to polymorphic form B”, the phase change temperature ([1]; on cooling) was 40 °C and the phase change temperature ([1]; on heating) was 60 °C.
For `Cc1ccc(C[C@H]2CON=C(c3cc(C)nnc3Oc3cccc(Cl)c3F)N2)c(Cl)c1` [polymorphic form B, (5S)-3-[3-(3-chloro-2-fluorophenoxy)-6-methylpyridazin-4-yl]-5-(2-chloro-4-methylbenzyl)-5,6-dihydro-4H-1,2,4-oxadiazine], the Mod. obtained ([2]; Exp. No. 1: Mod. B used, CH3CN, 0 °C) was “Mod. B”, the Mod. obtained ([2]; Exp. No. 2: Mod. B used, CH3CN, 40 °C) was “Mod. B” and the Mod. obtained ([2]; Exp. No. 3: Mod. B used, CH3CN/water, 80 °C) was “Mod. B”. For the same molecule, the Mod. obtained ([2]; Exp. No. 4: Mod. B used, Ethanol/water (1:1), 0 °C) was “Mod. B”, the Mod. obtained ([2]; Exp. No. 5: Mod. B used, Ethanol/water (1:1), 40 °C) was “Mod. B” and the Mod. obtained ([2]; Exp. No. 6: Mod. B used, Ethanol/water (1:1), 80 °C) was “Mod. B”. The “stability in slurry experiments: recrystallization events” value ([2]; above the transition temperature range over an extended period of time) was “No recrystallization events were observed” and the thermodynamic stability ([1]; below the transition temperatures (49° C. to 66° C.)) was “thermodynamically stable polymorph”.
With `Cc1ccc(C[C@H]2CON=C(c3cc(C)nnc3Oc3cccc(Cl)c3F)N2)c(Cl)c1` [compound of formula (I), (5S)-3-[3-(3-chloro-2-fluorophenoxy)-6-methylpyridazin-4-yl]-5-(2-chloro-4-methylbenzyl)-5,6-dihydro-4H-1,2,4-oxadiazine] the chromatographic logP [3] was 3.88.
